Molecules are shown by their SMILES.

Data on 1 molecule can be found in ChEMBL document CHEMBL3400053, “trans-3,4-Disubstituted pyrrolidines as inhibitors of the human aspartyl protease renin. Part II: prime site exploration using an oxygen linker” (Bioorg Med Chem Lett, 2015).

One data set addresses T1, Beta-secretase 2 (Homo sapiens, UniProt Q9Y5Z0).
T1 sequence (Q9Y5Z0 whole entry): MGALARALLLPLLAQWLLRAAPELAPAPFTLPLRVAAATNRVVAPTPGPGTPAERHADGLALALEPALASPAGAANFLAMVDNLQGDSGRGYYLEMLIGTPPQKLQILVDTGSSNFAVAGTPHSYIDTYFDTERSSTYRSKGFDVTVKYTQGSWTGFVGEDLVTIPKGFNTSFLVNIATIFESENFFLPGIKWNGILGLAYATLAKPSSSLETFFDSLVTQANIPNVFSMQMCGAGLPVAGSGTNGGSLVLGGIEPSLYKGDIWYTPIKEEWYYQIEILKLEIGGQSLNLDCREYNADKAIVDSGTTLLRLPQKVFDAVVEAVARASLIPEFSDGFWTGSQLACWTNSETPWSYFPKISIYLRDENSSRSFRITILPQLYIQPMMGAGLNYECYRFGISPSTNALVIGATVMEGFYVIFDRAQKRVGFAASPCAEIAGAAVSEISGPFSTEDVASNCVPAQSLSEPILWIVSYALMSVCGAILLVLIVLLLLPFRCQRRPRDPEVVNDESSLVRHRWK
Nature of the data set: Inhibition of BACE2 (unknown origin).

Data set [1] has as its system Rattus norvegicus. Nature of the data set: Oral bioavailability in cannulated fed Sprague-Dawley rat at 6 mg/kg. It counts as ADME, organism-based. To be noted: in vivo.
The test system of data set [2] is Rattus norvegicus. Nature of the data set: Plasma clearance in cannulated fed Sprague-Dawley rat at 2 mg/kg, iv. Format: ADME, organism-based. On the set-up: dose 2 mg/kg, route intravenous. To be noted: in vivo.
A further data set concerns the target Phosphodiesterase 3 (Homo sapiens, UniProt Q14432+Q13370). Nature of the data set: Inhibition of PDE3 (unknown origin). It counts as protein assay.
The next data set has as its target Pepsin A (Homo sapiens, UniProt P0DJD9). Nature of the data set: Inhibition of pepsin A (unknown origin).
For data set [3], the system named is Rattus norvegicus. Nature of the data set: AUC (0 to 24 hrs) in cannulated fed Sprague-Dawley rat at 6 mg/kg, po. Format: ADME, organism-based, Plasma. Details: time < 24 hr, dose 6 mg/kg, route oral. The note with it: in vivo.
Data set [4] deals with T2, Renin (Homo sapiens, UniProt P00797).
T2 sequence (P00797 whole entry): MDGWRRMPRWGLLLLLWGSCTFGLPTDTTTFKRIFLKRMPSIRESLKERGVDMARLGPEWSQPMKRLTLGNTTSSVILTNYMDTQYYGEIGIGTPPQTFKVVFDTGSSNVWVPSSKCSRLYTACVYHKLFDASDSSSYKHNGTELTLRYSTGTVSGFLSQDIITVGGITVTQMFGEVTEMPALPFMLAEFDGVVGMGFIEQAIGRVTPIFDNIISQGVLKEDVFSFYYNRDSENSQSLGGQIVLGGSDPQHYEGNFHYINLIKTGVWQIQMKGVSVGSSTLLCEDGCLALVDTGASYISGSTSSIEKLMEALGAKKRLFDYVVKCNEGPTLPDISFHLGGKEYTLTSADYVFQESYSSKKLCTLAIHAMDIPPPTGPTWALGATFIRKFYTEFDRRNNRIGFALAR
Nature of the data set: Inhibition of human recombinant renin by TR-FRET assay. (Time-resolved FRET reads energy transfer from a long-lived donor to a nearby acceptor.)

The target in data set [5] is T2, Renin. Nature of the data set: Inhibition of human recombinant renin in presence of plasma by TR-FRET assay.
Another data set deals with Beta-secretase 1 (Homo sapiens, UniProt P56817). Nature of the data set: Inhibition of BACE1 (unknown origin).
Sequence of Beta-secretase 1 (P56817 whole entry): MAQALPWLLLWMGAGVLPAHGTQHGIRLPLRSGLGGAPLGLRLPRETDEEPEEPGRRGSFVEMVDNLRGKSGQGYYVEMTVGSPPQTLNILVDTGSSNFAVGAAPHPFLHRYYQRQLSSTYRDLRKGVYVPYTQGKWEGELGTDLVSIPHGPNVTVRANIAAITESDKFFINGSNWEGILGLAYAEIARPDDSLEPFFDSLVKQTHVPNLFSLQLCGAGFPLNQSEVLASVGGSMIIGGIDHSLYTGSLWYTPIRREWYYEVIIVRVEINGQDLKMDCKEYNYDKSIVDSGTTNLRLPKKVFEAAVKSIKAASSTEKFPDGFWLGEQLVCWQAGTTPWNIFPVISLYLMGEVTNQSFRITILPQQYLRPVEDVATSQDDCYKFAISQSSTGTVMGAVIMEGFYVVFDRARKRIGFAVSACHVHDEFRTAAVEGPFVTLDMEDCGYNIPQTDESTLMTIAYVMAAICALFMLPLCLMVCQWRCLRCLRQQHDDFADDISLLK

Sequence of Pepsin A (P0DJD9 whole entry): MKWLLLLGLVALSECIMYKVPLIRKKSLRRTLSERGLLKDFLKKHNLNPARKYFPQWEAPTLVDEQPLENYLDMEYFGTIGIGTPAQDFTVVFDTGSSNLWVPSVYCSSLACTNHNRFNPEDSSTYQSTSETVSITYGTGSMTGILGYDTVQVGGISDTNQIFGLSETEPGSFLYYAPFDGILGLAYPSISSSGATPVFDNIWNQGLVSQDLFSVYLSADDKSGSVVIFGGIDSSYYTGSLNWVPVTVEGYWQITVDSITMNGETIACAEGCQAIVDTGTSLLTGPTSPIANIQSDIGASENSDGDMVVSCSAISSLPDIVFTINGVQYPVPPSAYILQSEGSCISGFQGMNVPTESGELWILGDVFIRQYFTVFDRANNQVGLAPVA

One may read the IC50 as the point on the concentration scale where inhibition reaches its midpoint. For orientation: AUC means concentration integrated over time. A high value points to high exposure. For `COCCCOc1cc(C(=O)N(C[C@@H]2CNC[C@H]2OC(=O)NCc2ccccc2)C(C)C)ccc1OC`, the half-maximal inhibitory concentration (IC50) is over 30000 nM against Beta-secretase 2; 1000 nM at Phosphodiesterase 3; over 30000 nM against Pepsin A; 40 nM at Renin [4]; 30 nM on Renin [5]; over 30000 nM at Beta-secretase 1. The F in the data set on Rattus norvegicus [1] came out at 57%. Further, the CL with Rattus norvegicus [2] worked out at 41.7 mL/min/kg. In the data set on Rattus norvegicus [3], this molecule had an AUC of 0.468 µM·h.
